Assay results as given in US20060063784A1, “Method of using substituted pyrazolo [1,5-a] pyrimidines” (priority 2004, published 2006).

System: 80S14 (p21-deficient) cells
Assay: Cytotoxicity assay using isogenic cell lines: IC50 in 80S14 (p21-deficient) cells, SRB
Type: cell-based, human
Settings: 80S14 (p21-deficient) cells, 5 days, SRB; class symbols; read-out: IC50 for 80S14
Summary of the method: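 IC50 is the concentration halving proliferation relative to untreated controls, read from SRB absorbance (560 nm) after TCA fixation. Test agent dilutions (5 pM–50 μM or 170 pg/ml–10 μg/ml) were left on p21-deficient 80S14 cells (12,000/well, pre-incubated overnight) for 5 days at 37 °C.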

Row | SMILES | IC50 [µM]
1 | C#CCN(C(=O)C1CC1)c1cccc(-c2ccnc3c(C(=O)OCC)cnn23)c1 [Example 258, Ethyl 7-[3-[(cyclopropylcarbonyl)-2-propynylamino]phenyl]-pyrazolo[1,5-a]pyrimidine-3-carboxylic acid] | 10 to 50

Same assay, conditions: 80S14 p21-deficient cells, 5 days incubation, SRB; read-out: IC50 for 80SI4

Row | SMILES | IC50 [µM]
2 | O=C(c1cccs1)c1cnn2c(-c3cccc(NC(=O)[C@@H]4CCCN4C(=O)C(F)(F)F)c3)ccnc12 [Example 52] | 1 to 10
3 | C[C@H](NC(=O)Nc1cccc(-c2ccnc3c(C(=O)c4cccs4)cnn23)c1)c1ccccc1 [Example 11, N-[(1S)-1-phenylethyl]-N′-{3-[3-(thien-2-ylcarbon1)pyrazolo[1,5-a]pyrimidin-7-yl]phenyl}urea] | 1 to 10
4 | O=C(CNC(=O)NC1CCCCC1)Nc1cccc(-c2ccnc3c(C(=O)c4cccs4)cnn23)c1 [Example 138, N-2-[(cyclohexylamino)carbonyl]-N1-{3-[3-(thien-2-ylcarbonyl)pyrazolo[1,5-a]pyrimidin-7-yl]phenyl}glycinamide] | 1 to 10
5 | N[C@H](C(=O)Nc1cccc(-c2ccnc3c(C(=O)c4cccs4)cnn23)c1)C1CCCCC1 [Example 86] | 1 to 10
6 | CN(C)CC(=O)Nc1cccc(-c2ccnc3c(C(=O)c4cccs4)cnn23)c1 [Example 64, N-2-N-2-dimethyl-N-1-{3-[3-(thien-2-ylcarbonyl)pyrazolo[1,5-a]pyrimidin-7-yl]phenyl}glycinamide] | 1 to 10

Same assay, conditions: Homo sapiens, 80S14, 120 h, read-out: IC50 for 80S14 (uM)

Row | SMILES | IC50 [µM]
7 | CCC(=O)Nc1cccc(-c2ccnc3c(C(=O)c4cccs4)cnn23)c1 [Example 251, N-[3-[3-(2-Thienylcarbonyl)pyrazolo[1,5-a]pyrimidin-7-yl]phenyl}-propanamide] | < 1
8 | CC(C)(C)C(=O)Nc1cccc(-c2ccnc3c(C(=O)c4ccccc4)cnn23)c1 [Example 242, N-[3-(3-Benzoylpyrazolo[1,5-a]-pyrimidin-7-yl)phenyl]-2,2-dimethyl-propanamide] | 1 to 10
9 | CC(C)(C)C(=O)Nc1cccc(-c2ccnc3c(C(=O)c4ccco4)cnn23)c1 [Example 243, N-[3-[3-(2-Furanylcarbonyl)pyrazolo-[1,5-a]pyrimidin-7-yl]phenyl}-2,2-dimethyl-propanamide] | 1 to 10
10 | CC(C)OC(=O)Nc1cccc(-c2ccnc3c(C(=O)c4ccco4)cnn23)c1 [Example 299, Isopropyl 3-[3-(2-furoyl)pyrazolo[1,5-a]pyrimidin-7-yl]phenylcarbamate] | < 1
11 | CC(=O)Nc1cccc(-c2ccnc3c(C(=O)c4cccs4)cnn23)c1 [Example 250, N-[3-[3-(2-Thienylcarbonyl)pyrazolo[1,5-a]pyrimidin-7-yl]phenyl}-acetamide] | 1 to 10

Same assay, conditions: Homo sapiens, 80S14, 120 h, read-out: IC50 for 80SI4 (uM)

Row | SMILES | IC50 [µM]
12 | CC(C)OC(=O)Nc1cccc(-c2ccnc3c(C(=O)c4cccs4)cnn23)c1 [Example 15, isopropyl 3-[3-(thien-2-ylcarbonyl)pyrazolo[1,5-a]pyrimidin-7-yl]phenylcarbamate] | < 1

Same assay, conditions: Homo sapiens, 120 h; 80S14 (p21-deficient) cells, 5 days, SRB; class symbols; read-out: IC50 for 80S14

Row | SMILES | IC50 [µM]
13 | COc1ccc(-c2ccnc3c(C(=O)c4cccs4)cnn23)cc1NC(=O)CC(C)C [Example 317, N-{2-Methoxy-5-[3-(2-thienylcarbonyl)pyrazolo[1,5-a]pyrimidin-7-yl]phenyl}-3-methylbutanamide] | 1 to 10
14 | O=C(c1cccs1)c1cnn2c(-c3cccc(NC(=S)Nc4cccc(-c5ccnc6c(C(=O)c7cccs7)cnn56)c4)c3)ccnc12 [Example 406, N,N′-bis {3-[3-(Thien-2-ylcarbonyl)pyrazolo[1,5-a]pyrimidin-7-yl]phenyl}thiourea] | 10 to 50
15 | COC(=O)c1cccc(-c2ccnc3c(C(=O)c4cccs4)cnn23)c1 [Example 306, Methyl 3-[3-(2-thienylcarbonyl)pyrazolo[1,5-a]pyrimidin-7-yl]benzoate] | 10 to 50
16 | Cc1cc(C)cc(-c2cnn3c(-c4cccc(-c5nnn(CCN6CCCCC6)n5)c4)ccnc23)c1 [Example 499, 3-(3,5-Dimethylphenyl)-7-{3-[2-(2-piperidin-1-ylethyl)-2H-tetrazol-5-yl]phenyl}pyrazolo[1,5-a]pyrimidine] | 1 to 10
17 | CCCCC/C(=C\c1ccccc1)CNc1cccc(-c2ccnc3c(C(=O)c4cccs4)cnn23)c1 [Example 410, [7-(3-{[(2E)-2-Pentyl-3-phenylprop-2-enyl]amino}phenyl)pyrazolo[1,5-a]pyrimidin-3-yl](thien-2-yl)methanone] | 10 to 50
18 | C/C(=C\c1ccccc1)CNc1cccc(-c2ccnc3c(C(=O)c4cccs4)cnn23)c1 [Example 397, [7-(3-{[(2E)-2-Methyl-3-phenylprop-2-enyl]amino}phenyl)pyrazolo[1,5-a]pyrimidin-3-yl] (thien-2-yl)methanone] | 10 to 50
19 | CCC(CC)CNc1cccc(-c2ccnc3c(C(=O)c4cccs4)cnn23)c1 [Example 403, (7-{3-[(2-Ethylbutyl)amino]phenyl}pyrazolo[1,5-a]pyrimidin-3-yl)(thien-2-yl)methanone] | 1 to 10
20 | O=C(c1ccccc1)c1cnn2c(-c3cccc(N4CCCC4=O)c3)ccnc12 [Example 229, 1-[3-(3-Benzoylpyrazolo[1,5-a]-pyrimidin-7-yl)phenyl]-2-pyrrolidinone] | 10 to 50
21 | CN(C(=O)C1CCC1)c1cccc(-c2ccnc3c(C(=O)c4ccco4)cnn23)c1 [Example 233, N-[3-[3-(2-Furanylcarbonyl)-pyrazolo[1,5-a]pyrimidin-7-yl]phenyl}-N-methyl-cyclobutanecarboxamide] | 10 to 50
22 | O=C(c1cccs1)c1cnn2c(-c3cccc(NC(=O)C4CO4)c3)ccnc12 (stereo not shown) [Example 277, N-{3-[3-(2-Thienylcarbonyl)pyrazolo[1,5-a]pyrimidin-7-yl]phenyl}-2-oxiranecarboxamide] | < 1
23 | O=[N+]([O-])c1cccc(-c2ccnc3c(-c4ccsc4)cnn23)c1 [Example 325, 7-(3-Nitrophenyl)-3-(3-thienyl)pyrazolo[1,5-a]pyrimidine] | 10 to 50

Same assay, conditions: Homo sapiens, 120 h; 80S14 p21-deficient cells, 5 days incubation, SRB; read-out: IC50 for 80SI4

Row | SMILES | IC50 [µM]
24 | N[C@@H](Cc1ccccc1)C(=O)Nc1cccc(-c2ccnc3c(C(=O)c4cccs4)cnn23)c1 [Example 81, N-{3-[3-(thien-2-ylcarbonyl)pyrazolo[1,5-a]pyrimidin-7-yl]phenyl}-L-phenylalaninamide] | 10 to 50
25 | CCCCNC(=O)Nc1cccc(-c2c(C)cnc3c(C(=O)c4cccs4)cnn23)c1 [Example 221, N-butyl-N′-{3-[6-methyl-3-(thien-2-ylcarbonyl)pyrazolo[1,5-a]pyrimidin-7-yl]phenyl}urea] | 10 to 50
26 | C=C(C)C(=O)Nc1cccc(-c2ccnc3c(C(=O)c4cccs4)cnn23)c1 [Example 43, 2-methyl-N-{3-[3-(thien-2-ylcarbonyl)pyrazolo[1,5-a]pyrimidin-7-yl]phenyl}acrylamide] | < 1
27 | O=C(CCC1CCCC1)Nc1cccc(-c2ccnc3c(C(=O)c4cccs4)cnn23)c1 [Example 146, 3-cyclopentyl-N-{3-[3-(thien-2-ylcarbonyl)pyrazolo[1,5-a]pyrimidin-7-yl]phenyl}propanamide] | 1 to 10
28 | O=C(CNC(=O)C1CCCC1)Nc1cccc(-c2ccnc3c(C(=O)c4cccs4)cnn23)c1 [Example 128, N-[2-oxo-2-({3-[3-(thien-2-ylcarbonyl)pyrazolo[1,5-a]pyrimidin-7-yl]phenyl}amino)ethyl]cyclopentanecarboxamide] | 1 to 10
29 | COc1cccc(OC)c1C(=O)Nc1cccc(-c2ccnc3c(C(=O)c4cccs4)cnn23)c1 [Example 101, 2,6-dimethoxy-N-{3-[3-(thien-2-ylcarbonyl)pyrazolo[1,5-a]pyrimidin-7-yl]phenyl}benzamide] | < 1
30 | CCCCCc1ccc(C(=O)Nc2cccc(-c3ccnc4c(C(=O)c5cccs5)cnn34)c2)cc1 [Example 92, 4-pentyl-N-{3-[3-(thien-2-ylcarbonyl)pyrazolo[1,5-a]pyrimidin-7-yl]phenyl}benzamide] | 10 to 50
31 | COc1ccc(S(=O)(=O)Nc2cccc(-c3ccnc4c(C(=O)c5cccs5)cnn34)c2)cc1 [Example 36, 4-methoxy-N-{3-[3-(thien-2-ylcarbonyl)pyrazolo[1,5-a]pyrimidin-7-yl]phenyl}benzenesulfonamide] | 1 to 10
32 | Cc1ccccc1CC(=O)Nc1cccc(-c2ccnc3c(C(=O)c4cccs4)cnn23)c1 [Example 68, 2-(2-methylphenyl)-N-{3-[3-(thien-2-ylcarbonyl)pyrazolo[1,5-a]pyrimidin-7-yl]phenyl}acetamide] | < 1
33 | CCS(=O)(=O)Nc1cccc(-c2ccnc3c(C(=O)c4cccs4)cnn23)c1 [Example 28, N-{3-[3-(thien-2-ylcarbonyl)pyrazolo[1,5-a]pyrimidin-7-yl]phenyl}ethanesulfonamide] | < 1
34 | CC(C)C(C)OC(=O)Nc1cccc(-c2ccnc3c(C(=O)c4cccs4)cnn23)c1 (stereo not shown) [Example 191, 1,2-dimethylpropyl 3-[3-(thien-2-ylcarbonyl)pyrazolo[1,5-a]pyrimidin-7-yl]phenylcarbamate] | < 1
35 | O=C(Nc1cccc(-c2ccnc3c(C(=O)c4cccs4)cnn23)c1)OCCc1ccsc1 [Example 179, 2-thien-3-ylethyl 3-[3-(thien-2-ylcarbonyl)pyrazolo[1,5-a]pyrimidin-7-yl]phenylcarbamate] | 1 to 10
36 | CC(C)(C)COC(=O)NCC(=O)Nc1cccc(-c2ccnc3c(C(=O)c4cccs4)cnn23)c1 [Example 121, neopentyl 2-oxo-2-({3-[3-(thien-2-ylcarbonyl)pyrazolo[1,5-a]pyrimidin-7-yl]phenyl}amino)ethylcarbamate] | 1 to 10
37 | COC(=O)[C@@H](NC(=O)Nc1cccc(-c2ccnc3c(C(=O)c4cccs4)cnn23)c1)C(C)C [Example 4, methyl N-[({3-[3-(thien-2-ylcarbonyl)pyrazolo[1,5-a]pyrimidin-7-yl]phenyl}amino)carbonyl]-L-valinate] | < 1
